According to patent US4548925A, “Antibiotic M43A, pharmaceutical composition and method of use” (Eli Lilly and Company, priority 1984, dated 1985):
Values after ≈ are worked out from the molar mass of the structure shown.

How the values were obtained:
[1] = tested on: Clostridium perfringens 81; type: cell-based; settings: agar dilution, read after 24 hrs incubation
[2] = tested on: Klebsiella pneumoniae KAE; assay: In vitro MIC, standard agar-dilution assay; type: cell-based; settings: M43A phosphate salt, vancomycin free base
[3] = tested on: Staphylococcus aureus NRRL B313; assay: In vitro MIC, standard agar-dilution assay; type: cell-based; settings: M43A phosphate salt, vancomycin free base
[4] = tested on: Staphylococcus aureus X400; assay: In vitro MIC, standard agar-dilution assay; type: cell-based; settings: M43A phosphate salt, vancomycin free base
[5] = tested on: Streptococcus faecium ATCC 9790; settings: agar dilution, M43A phosphate salt, vancomycin free base
Escherichia coli TEM = assay: In vitro MIC, standard agar-dilution assay; type: cell-based; settings: M43A phosphate salt, vancomycin free base
[6] = tested on: Haemophilus influenzae C.L.; assay: In vitro MIC, standard agar-dilution assay; type: cell-based; settings: M43A phosphate salt, vancomycin free base
Staphylococcus aureus = assay: Experimental bacterial infection in mice, ED50; type: in vivo; settings: subcutaneous, two doses, dose protecting 50% of animals
[7] = tested on: Bacteroides corrodens 1874; assay: Susceptibility of anaerobic isolates, agar-dilution MIC; type: cell-based; settings: read after 24 hrs incubation
Experimental: (§1) . | ^a MIC's were determined by the agardilution method; endpoints were
(§2) read after 24hrs. incubation.

Bacteroides fragilis 111 = assay: as above; type: cell-based; settings: read after 24 hrs incubation
Experimental: as §1, §2

[8] = tested on: Eubacterium aerofaciens 1235; assay: as above; type: cell-based; settings: read after 24 hrs incubation
Experimental: as §1, §2

[9] = tested on: Bacteroides melaninogenicus 1856/28; assay: as above; type: cell-based; settings: read after 24 hrs incubation
Experimental: as §1, §2

[10] = tested on: Peptococcus asaccharolyticus 1302; assay: as above; type: cell-based; settings: read after 24 hrs incubation
Experimental: as §1, §2

[11] = tested on: Bacteroides fragilis 1936B; assay: as above; type: cell-based; settings: read after 24 hrs incubation
Experimental: as §1, §2

[12] = tested on: Bacteroides fragilis 1877; assay: as above; type: cell-based; settings: read after 24 hrs incubation
Experimental: as §1, §2

[13] = tested on: Clostridium septicum 1128; assay: as above; type: cell-based; settings: read after 24 hrs incubation
Experimental: as §1, §2

[14] = tested on: Fusobacterium necrophorum 6054A; assay: as above; type: cell-based; settings: read after 24 hrs incubation
Experimental: as §1, §2

[15] = tested on: Clostridium difficile 2994; assay: as above; type: cell-based; settings: read after 24 hrs incubation
Experimental: as §1, §2

[16] = tested on: Bacteroides thetaiotaomicron 1438; assay: as above; type: cell-based; settings: read after 24 hrs incubation
Experimental: as §1, §2

Peptococcus prevoti 1281 = assay: as above; type: cell-based; settings: read after 24 hrs incubation
Experimental: as §1, §2

[17] = tested on: Propionibacterium acnes 79; assay: as above; type: cell-based; settings: read after 24 hrs incubation
Experimental: as §1, §2

[18] = tested on: Peptostreptococcus anaerobius 1428; assay: as above; type: cell-based; settings: read after 24 hrs incubation
Experimental: as §1, §2

[19] = tested on: Bacteroides melaninogenicus 2736; assay: as above; type: cell-based; settings: read after 24 hrs incubation
Experimental: as §1, §2

[20] = tested on: Fusobacterium symbiosum 1470; assay: as above; type: cell-based; settings: read after 24 hrs incubation
Experimental: as §1, §2

[21] = tested on: Bacteroides vulgatis 1211; assay: as above; type: cell-based; settings: read after 24 hrs incubation
Experimental: as §1, §2

[22] = tested on: Peptostreptococcus intermedius 1264; assay: as above; type: cell-based; settings: read after 24 hrs incubation
Experimental: as §1, §2

[23] = tested on: Klebsiella pneumoniae X68; assay: In vitro MIC, standard agar-dilution assay; type: cell-based; settings: M43A phosphate salt, vancomycin free base
[24] = tested on: Streptococcus sp. group D 9960; settings: agar dilution, M43A phosphate salt, vancomycin free base
[25] = tested on: Staphylococcus aureus V41; assay: In vitro MIC, standard agar-dilution assay; type: cell-based; settings: M43A phosphate salt, vancomycin free base
Escherichia coli EC14 = assay: In vitro MIC, standard agar-dilution assay; type: cell-based; settings: M43A phosphate salt, vancomycin free base
Escherichia coli N10 = assay: In vitro MIC, standard agar-dilution assay; type: cell-based; settings: M43A phosphate salt, vancomycin free base
Streptococcus pyogenes = assay: Experimental bacterial infection in mice, ED50; type: in vivo; settings: subcutaneous, two doses, dose protecting 50% of animals
[26] = tested on: Haemophilus influenzae 76; assay: In vitro MIC, standard agar-dilution assay; type: cell-based; settings: M43A phosphate salt, vancomycin free base
[27] = tested on: Klebsiella pneumoniae X26; assay: In vitro MIC, standard agar-dilution assay; type: cell-based; settings: M43A phosphate salt, vancomycin free base
[28] = tested on: Streptococcus pyogenes C203; assay: In vitro MIC, standard agar-dilution assay; type: cell-based; settings: M43A phosphate salt, vancomycin free base
Streptococcus pneumoniae = assay: Experimental bacterial infection in mice, ED50; type: in vivo; settings: subcutaneous, two doses, dose protecting 50% of animals

SMILES: CN[C@H](CC(C)C)C(=O)N[C@H]1C(=O)N[C@@H](CC(N)=O)C(=O)N[C@H]2C(=O)N[C@H]3C(=O)N[C@H](C(=O)N[C@H](C(=O)O)c4cc(O)cc(O)c4-c4cc3ccc4O)[C@H](O)c3ccc(c(Cl)c3)Oc3cc2cc(c3O[C@@H]2O[C@H](CO)[C@@H](O)[C@H](O)[C@H]2O[C@H]2C[C@](C)(N)[C@H](O)[C@H](C)O2)Oc2ccc(cc2Cl)[C@H]1O [Vancomycin]
- MIC [1]: 1 µg/mL (≈ 0.69 µM)
- MIC [2]: > 128 µg/mL
- MIC [3]: 1 µg/mL
- MIC [4]: 1 µg/mL
- MIC [5]: 1 µg/mL
- MIC (Escherichia coli TEM): > 128 µg/mL
- MIC [6]: 128 µg/mL
- E50 (Staphylococcus aureus): 1.62 mg/kg/2
- MIC [7]: 32 µg/mL (≈ 22.1 µM)
- MIC (Bacteroides fragilis 111): 64 µg/mL (≈ 44.2 µM)
- MIC [8]: 16 µg/mL (≈ 11 µM)
- MIC [9]: > 128 µg/mL
- MIC [10]: 2 µg/mL (≈ 1.38 µM)
- MIC [11]: 32 µg/mL (≈ 22.1 µM)
- MIC [12]: 32 µg/mL (≈ 22.1 µM)
- MIC [13]: 4 µg/mL (≈ 2.76 µM)
- MIC [14]: 2 µg/mL (≈ 1.38 µM)
- MIC [15]: 2 µg/mL (≈ 1.38 µM)
- MIC [16]: 16 µg/mL (≈ 11 µM)
- MIC (Peptococcus prevoti 1281): 2 µg/mL (≈ 1.38 µM)
- MIC [17]: 2 µg/mL (≈ 1.38 µM)
- MIC [18]: 2 µg/mL (≈ 1.38 µM)
- MIC [19]: 8 µg/mL (≈ 5.52 µM)
- MIC [20]: 2 µg/mL (≈ 1.38 µM)
- MIC [21]: 16 µg/mL (≈ 11 µM)
- MIC [22]: 4 µg/mL (≈ 2.76 µM)
- MIC [23]: > 128 µg/mL
- MIC [24]: 4 µg/mL
- MIC [25]: 1 µg/mL
- MIC (Escherichia coli EC14): > 128 µg/mL
- MIC (Escherichia coli N10): > 128 µg/mL
- E50 (Streptococcus pyogenes): 1.2 mg/kg/2
- MIC [26]: 32 µg/mL
- MIC [27]: > 128 µg/mL
- MIC [28]: 1 µg/mL
- E50 (Streptococcus pneumoniae): 1.47 mg/kg/2
